Structures can show the parent of a compound that is named as a salt. Where two headings read alike, the source gives them in different places.
Experiments:
plasma DPP IV [1] = target: T1, plasma DPP IV (Rattus norvegicus, UniProt P14740); test: Plasma DPP IV activity after oral administration, rat; type: in vivo; settings: for inhibition at 1 mg/kg: 1 mg/kg oral; for ED50: oral, read-out: ED50 for inhibition of plasma DPP IV activity
T1 construct: from tissue
Protocol: The effect of 1-[(3-cyano-pyridin-2-yl)methyl]-3-methyl-7-(2-butyn-1-yl)-8-[3-(R)-amino-piperidin-1-yl]-xanthine on plasma DPP IV activity after oral administration was investigated in the rat, the Beagle dog and the Rhesus monkey. These investigations were conducted as described in the following.
Male HanWistar rats (Crl:WI(Han)) were obtained from Charles River (Germany). Animals were fed ad libitum with a standard pelleted diet (Diet No. 3438, Provimi Kliba, Switzerland) and had free access to water. Animals were housed in groups with a 12 h/12 h light/dark cycle (lights out between 6 p.m. and 6 a.m.). The rats were used for the experiment at a body weight of about 260 g. Such freely fed male HanWistar rats (n=5 per group) were administered oral doses of vehicle or 1-[(3-cyano-pyridin-2-yl)methyl]-3-methyl-7-(2-butyn-1-yl)-8-[3-(R)-amino-piperidin-1-yl]-xanthine monohydrochloride at 0.1, 0.3, 1, and 3 mg/kg body weight. Blood samples were drawn from the retrobulbal venous plexus under isoflurane anaesthesia. Blood was collected in EDTA tubes prior to administration of vehicle or 1-[(3-cyano-pyridin-2-yl)methyl]-3-methyl-7-(2-butyn-1-yl)-8-[3-(R)-amino-piperidin-1-yl]-xanthine monohydrochloride and subsequently at 0.5, 1, 2, 3, 4, 7, and 24 hour time points post dose. Plasma was prepared following blood collection and frozen for determination of DPP-IV activity.

thrombin = thrombin (Homo sapiens, UniProt P00734); test: In vitro selectivity, human proteases: thrombin; type: biochemical; settings: up to 100 μM
Text: In order to determine the in vitro selectivity of 1-[(3-cyano-pyridin-2-yl)methyl]-3-methyl-7-(2-butyn-1-yl)-8-[3-(R)-amino-piperidin-1-yl]-xanthine, the ability of this compound to inhibit a number of human proteases was investigated as described in Thomas et al. (2008), J. Pharmacol. Exp. Ther., vol. 325, p. 175-182, chapter In vitro DPP-4 Inhibition Assay, p. 176.

plasma DPP IV [2] = target: T1, plasma DPP IV; test: Inhibition of plasma DPP IV activity in vitro, rat plasma; type: biochemical
Protocol: Studies were also conducted to assess the inhibitory effect of this compound on plasma DPP IV activity in several species.

DPP IV = target: T2, DPP IV (Felis catus, UniProt Q9N2I7); test: Exploratory single dose PK/PD (0.01/0.1/1.0 mg/kg) in cats: DPP IV activity; type: in vivo; settings: read-out: DPP IV activity in cat plasma; for response vs control in vivo at 0.01 mg/kg: 0.01 mg/kg single oral; for response vs control in vivo at 0.1 mg/kg: 0.1 mg/kg single oral; for response vs control in vivo at 1 mg/kg: 1 mg/kg single oral
T2 construct: Blood samples for the determination of this compound and DPP IV activity were collected; from tissue; host or cells: plasma of domestic short hair / purpose-bred cats dosed orally
Protocol: The investigation of the PK/PD values was conducted in the same way as in Example 7, with the variations described below.
The aim of this study was to investigate the PK/PD of 1-[(3-cyano-pyridin-2-yl)methyl]-3-methyl-7-(2-butyn-1-yl)-8-[3-(R)-amino-piperidin-1-yl]-xanthine monohydrochloride in the cat after a single oral administration of 0, 0.01, 0.1 and 1.0 mg/kg body weight of this compound (dosages were based on the free base).
Eleven clinically healthy male adult domestic short hair cats with a body weight range of 3.5-5.0 kg were used in this study. All animals were treated orally once via a stomach tube. Blood samples were drawn at 0 h (i.e. prior to treatment), 30 min as well as 1, 2, 4, 8, 12, 24, 36, 48, 72 and 96 h after treatment and the activity of DPP IV was determined like in Example 6.

T1 sequence (P14740 37-767 limits assumed): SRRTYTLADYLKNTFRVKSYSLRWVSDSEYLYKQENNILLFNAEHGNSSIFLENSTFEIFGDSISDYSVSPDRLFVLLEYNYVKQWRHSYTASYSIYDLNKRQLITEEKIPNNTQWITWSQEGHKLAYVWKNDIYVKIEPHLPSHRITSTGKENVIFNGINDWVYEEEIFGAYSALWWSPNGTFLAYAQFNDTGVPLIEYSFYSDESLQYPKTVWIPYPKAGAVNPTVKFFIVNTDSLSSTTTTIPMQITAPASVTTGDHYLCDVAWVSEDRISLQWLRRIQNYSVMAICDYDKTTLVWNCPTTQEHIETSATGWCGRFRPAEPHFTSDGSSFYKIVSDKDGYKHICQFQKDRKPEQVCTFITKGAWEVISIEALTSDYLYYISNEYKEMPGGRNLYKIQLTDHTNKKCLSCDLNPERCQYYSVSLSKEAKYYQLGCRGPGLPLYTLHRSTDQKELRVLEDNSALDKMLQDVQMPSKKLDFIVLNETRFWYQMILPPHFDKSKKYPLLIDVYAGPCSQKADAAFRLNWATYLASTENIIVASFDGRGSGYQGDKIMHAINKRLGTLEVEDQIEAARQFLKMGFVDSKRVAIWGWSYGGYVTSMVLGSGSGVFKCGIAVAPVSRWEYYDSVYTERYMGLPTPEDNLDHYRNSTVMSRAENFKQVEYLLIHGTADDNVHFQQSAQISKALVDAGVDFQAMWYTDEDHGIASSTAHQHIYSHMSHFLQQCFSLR
T2 sequence (Q9N2I7 38-765 limits assumed): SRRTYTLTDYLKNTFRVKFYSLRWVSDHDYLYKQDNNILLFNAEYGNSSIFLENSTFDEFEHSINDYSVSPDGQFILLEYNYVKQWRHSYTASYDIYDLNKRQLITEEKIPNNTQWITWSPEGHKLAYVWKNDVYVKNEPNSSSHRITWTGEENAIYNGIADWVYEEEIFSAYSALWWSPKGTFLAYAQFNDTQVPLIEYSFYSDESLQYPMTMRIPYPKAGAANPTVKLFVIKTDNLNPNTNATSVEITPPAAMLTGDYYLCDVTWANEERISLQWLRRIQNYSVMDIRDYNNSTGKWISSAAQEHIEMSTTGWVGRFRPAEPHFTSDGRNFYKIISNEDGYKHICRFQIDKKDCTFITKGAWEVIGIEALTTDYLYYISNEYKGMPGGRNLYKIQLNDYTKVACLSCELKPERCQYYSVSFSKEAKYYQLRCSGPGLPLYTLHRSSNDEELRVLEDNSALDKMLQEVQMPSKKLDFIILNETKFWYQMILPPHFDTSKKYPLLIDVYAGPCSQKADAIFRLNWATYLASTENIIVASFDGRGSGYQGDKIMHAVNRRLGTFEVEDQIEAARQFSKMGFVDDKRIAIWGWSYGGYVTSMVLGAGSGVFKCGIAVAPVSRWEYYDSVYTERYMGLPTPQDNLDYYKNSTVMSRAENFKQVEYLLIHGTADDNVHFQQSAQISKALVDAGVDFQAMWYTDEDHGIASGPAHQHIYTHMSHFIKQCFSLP

Compound: CC#CCn1c(N2CCC[C@@H](N)C2)nc2c1c(=O)n(Cc1ncccc1C#N)c(=O)n2C [1-[(3-cyano-pyridin-2-yl)methyl]-3-methyl-7-(2-butyn-1-yl)-8-[3-(R)-amino-piperidin-1-yl]-xanthine monohydrochloride]
- inhibition at 1 mg/kg (plasma DPP IV [1]; 7 hours post dose): 86%
- inhibition at 1 mg/kg (plasma DPP IV [1]; 24 hours post dose): 64%
- ED50 (plasma DPP IV [1]; 7 h post dose): 0.4 mg/kg
- ED50 (plasma DPP IV [1]; 24 h post dose): 0.6 mg/kg
- inhibitory effect on thrombin (thrombin): did not exert any inhibitory effect
- IC50 (plasma DPP IV [2]): ~0.8 nM
- response vs control in vivo at 0.01 mg/kg (DPP IV; 0.5 h): 73%
- response vs control in vivo at 0.01 mg/kg (DPP IV; 1 h): 66%
- response vs control in vivo at 0.01 mg/kg (DPP IV; 2 h): 71%
- response vs control in vivo at 0.01 mg/kg (DPP IV; 4 h): 77%
- response vs control in vivo at 0.01 mg/kg (DPP IV; 8 h): 85%
- response vs control in vivo at 0.01 mg/kg (DPP IV; 12 h): 88%
- response vs control in vivo at 0.01 mg/kg (DPP IV; 24 h): 90%
- response vs control in vivo at 0.01 mg/kg (DPP IV; 36 h): 87%
- response vs control in vivo at 0.01 mg/kg (DPP IV; 48 h): 88%
- response vs control in vivo at 0.01 mg/kg (DPP IV; 72 h): 85%
- response vs control in vivo at 0.01 mg/kg (DPP IV; 96 h): 90%
- response vs control in vivo at 0.1 mg/kg (DPP IV; 0.5 h): 23%
- response vs control in vivo at 0.1 mg/kg (DPP IV; 1 h): 17%
- response vs control in vivo at 0.1 mg/kg (DPP IV; 2 h): 16%
- response vs control in vivo at 0.1 mg/kg (DPP IV; 4 h): 24%
- response vs control in vivo at 0.1 mg/kg (DPP IV; 8 h): 39%
- response vs control in vivo at 0.1 mg/kg (DPP IV; 12 h): 50%
- response vs control in vivo at 0.1 mg/kg (DPP IV; 24 h): 67%
- response vs control in vivo at 0.1 mg/kg (DPP IV; 36 h): 83%
- response vs control in vivo at 0.1 mg/kg (DPP IV; 48 h): 82%
- response vs control in vivo at 0.1 mg/kg (DPP IV; 72 h): 91%
- response vs control in vivo at 0.1 mg/kg (DPP IV; 96 h): 90%
- response vs control in vivo at 1 mg/kg (DPP IV; 0.5 h): 10%
- response vs control in vivo at 1 mg/kg (DPP IV; 1 h): 10%
- response vs control in vivo at 1 mg/kg (DPP IV; 2 h): 8%
- response vs control in vivo at 1 mg/kg (DPP IV; 4 h): 10%
- response vs control in vivo at 1 mg/kg (DPP IV; 8 h): 12%
- response vs control in vivo at 1 mg/kg (DPP IV; 12 h): 15%
- response vs control in vivo at 1 mg/kg (DPP IV; 24 h): 27%
- response vs control in vivo at 1 mg/kg (DPP IV; 36 h): 63%
- response vs control in vivo at 1 mg/kg (DPP IV; 48 h): 72%
- response vs control in vivo at 1 mg/kg (DPP IV; 72 h): 80%
- response vs control in vivo at 1 mg/kg (DPP IV; 96 h): 86%
